Reference: ChEMBL document CHEMBL4308851, “Alkyl-guanidine Compounds as Potent Broad-Spectrum Antibacterial Agents: Chemical Library Extension and Biological Characterization” (J Med Chem, 2018)
Values after ≈ are worked out from the molar mass of the structure shown. Active and inactive are the calls of the source. No cut-off for these calls is given here.

Columns and labels:
[1] = tested on: Klebsiella pneumoniae; experiment: Antibacterial activity against Klebsiella pneumoniae isolate SI-081 after 18 hrs by microdilution broth method; type: functional; conditions: isolate SI-081, 18 h
[2] = tested on: Bacillus spizizenii; experiment: Antibacterial activity against Bacillus subtilis ATCC 6633 after 18 hrs by microdilution broth method; type: functional; conditions: ATCC 6633, 18 h
[3] = tested on: Acinetobacter baumannii; experiment: Disruption of inner membrane integrity in Acinetobacter baumannii ATCC 19606 co-expressing pMP2200::PrrnB plasmid assessed as induction of […] conversion at 256 ug/ml measured at 10 mins intervals for 1 hr; type: functional, organism-based; conditions: ATCC 19606 = CIP 70.34 = JCM 6841
[4] = tested on: Klebsiella pneumoniae; experiment: Antibacterial activity against Klebsiella pneumoniae ATCC […] after 18 hrs by microdilution broth method; type: functional
[5] = tested on: Acinetobacter baumannii; experiment: Antibiofilm activity against Acinetobacter baumannii ATCC 19606 at half MIC concentration after 24 hrs by crystal violet-based assay; type: functional, organism-based; conditions: ATCC 19606 = CIP 70.34 = JCM 6841
[6] = tested on: Enterobacter cloacae; experiment: Antibacterial activity against Enterobacter cloacae isolate VA-417/02 after 18 hrs by microdilution broth method; type: functional; conditions: isolate VA-417/02, 18 h
[7] = tested on: Burkholderia cepacia; experiment: Antibacterial activity against Burkholderia cepacia isolate SI-R2 after 18 hrs by microdilution broth method; type: functional; conditions: isolate SI-R2, 18 h
[8] = tested on: Streptococcus pyogenes; experiment: Antibacterial activity against Streptococcus pyogenes ATCC 12344 after 18 hrs by microdilution broth method; type: functional; conditions: ATCC 12344, 18 h
[9] = tested on: Pseudomonas aeruginosa; experiment: Antibacterial activity against Pseudomonas aeruginosa ATCC 27853 after 18 hrs by microdilution broth method; type: functional
[10] = tested on: Pseudomonas aeruginosa; experiment: Antibiofilm activity against Pseudomonas aeruginosa PAO1 ATCC 15692 assessed as effect on biofilm 3D structures at half MIC concentration after 24 hrs by AO-staining based confocal microscopy; type: functional, organism-based
[11] = tested on: Escherichia coli; experiment: Antibiofilm activity against Escherichia coli MG1655 ATCC 47076 at half MIC concentration after 24 hrs by crystal violet-based assay; type: functional, organism-based; conditions: K-12 substr. MG1655 ATCC 47076
[12] = tested on: Pseudomonas aeruginosa; experiment: Disruption of inner membrane integrity in Pseudomonas aeruginosa PAO1 ATCC 15692 co-expressing pMP2200::PrrnB plasmid assessed as induction of OPNG conversion at 256 ug/ml measured at 10 mins intervals for 1 hr; type: functional, organism-based
[13] = tested on: Escherichia coli; experiment: Antibacterial activity against Escherichia coli CCUG after 18 hrs by microdilution broth method
[14] = tested on: Acinetobacter baumannii; experiment: Antibiofilm activity against Acinetobacter baumannii ATCC 19606 assessed as effect on biofilm 3D structures at half MIC concentration after 24 hrs by AO-staining based confocal microscopy; type: functional, organism-based; conditions: ATCC 19606 = CIP 70.34 = JCM 6841
[15] = tested on: Acinetobacter baumannii; experiment: Disruption of Acinetobacter baumannii ATCC 19606 outer membrane integrity assessed as induction of NPN uptake after 30 mins by NPN fluorescence-based assay; type: functional, organism-based; conditions: ATCC 19606 = CIP 70.34 = JCM 6841
[16] = tested on: Staphylococcus aureus; experiment: Antibacterial activity against Staphylococcus aureus ATCC 25923 after 18 hrs by microdilution broth method; type: functional; conditions: ATCC 25923, 18 h
[17] = tested on: Pseudomonas aeruginosa; experiment: Antibiofilm activity against Pseudomonas aeruginosa PAO1 ATCC 15692 at half MIC concentration after 24 hrs by crystal violet-based assay; type: functional, organism-based
[18] = tested on: Enterococcus faecalis; experiment: Antibacterial activity against Enterococcus faecalis ATCC 19433 after 18 hrs by microdilution broth method; type: functional; conditions: ATCC 19433, 18 h
[19] = Hemolytic activity against human erythrocytes assessed as induction of hemolysis at 64 ug/ml after 30 mins; type: cell-based, Erythrocyte; conditions: read-out: Activity
[20] = tested on: Escherichia coli; experiment: Antibiofilm activity against Escherichia coli MG1655 ATCC 47076 assessed as effect on biofilm 3D structures at half MIC concentration after 24 hrs by AO-staining based confocal microscopy; type: functional, organism-based; conditions: K-12 substr. MG1655 ATCC 47076
[21] = tested on: Acinetobacter baumannii; experiment: Antibacterial activity against Acinetobacter baumannii ATCC 17978 after 18 hrs by microdilution broth method; type: functional
[22] = tested on: Pseudomonas aeruginosa; experiment: Disruption of Pseudomonas aeruginosa PAO1 ATCC 15692 outer membrane integrity assessed as induction of NPN uptake after 30 mins by NPN fluorescence-based assay; type: functional, organism-based
[23] = tested on: Escherichia coli; experiment: Disruption of Escherichia coli MG1655 ATCC 47076 outer membrane integrity assessed as induction of NPN uptake after 30 mins by NPN fluorescence-based assay; type: functional, organism-based; conditions: K-12 substr. MG1655 ATCC 47076
[24] = tested on: Acinetobacter baumannii; experiment: Antibacterial activity against Acinetobacter baumannii isolate AC-54/97 after 18 hrs by microdilution broth method; type: functional; conditions: isolate AC-54/97, 18 h
[25] = tested on: Escherichia coli; experiment: Disruption of inner membrane integrity in Escherichia coli MG1655 assessed as induction of […] conversion at 256 ug/ml measured at 10 mins intervals for 1 hr; type: functional, organism-based; conditions: K-12 substr. MG1655
[26] = tested on: Stenotrophomonas maltophilia; experiment: Antibacterial activity against Stenotrophomonas maltophilia isolate 634/08 after 18 hrs by microdilution broth method; type: functional; conditions: isolate 634/08, 18 h
[27] = Apparent permeability of the compound after 5 hrs by PAMPA; type: ADME
[28] = in vitro; conditions: human, Caco-2
Description: Efflux ratio of apparent permeability in human Caco2 cells at 10 uM after 120 mins by LC-MS/MS analysis

[29] = tested on: Escherichia coli; experiment: Bactericidal activity against Escherichia coli CCUG assessed as log reduction in CFU at 2 times MIC concentration after 1 hr by time kill assay; type: functional
[30] = tested on: Escherichia coli; experiment: Antibacterial activity against Escherichia coli CCUG after 24 hrs by microdilution broth method; type: functional

Row | MIC [1] [µg/mL] | MIC [2] [µg/mL] | MIC [4] [µg/mL] | MIC [6] [µg/mL] | MIC [7] [µg/mL] | MIC [8] [µg/mL] | MIC ([9]; ATCC 27853, 18 h) [µg/mL] | MIC [13] [µg/mL] | MIC [16] [µg/mL] | MIC [18] [µg/mL] | MIC ([21]; ATCC 17978, 18 h) [µg/mL] | Compound | Activity [3] | Activity [5] | Activity [10] | Activity [11] | Activity [12] | Activity [14] | Activity [15] | Activity [17] | Activity [25] | further results
1 | 4 (≈ 4.2 µM) | 8 (≈ 8.39 µM) | 4 (≈ 4.2 µM) | 4 (≈ 4.2 µM) | 32 (≈ 33.6 µM) | 2 (≈ 2.1 µM) | 64 (≈ 67.1 µM) | 16 (≈ 16.8 µM) | 16 (≈ 16.8 µM) | 4 (≈ 4.2 µM) | 8 (≈ 8.39 µM) | N=C(NCCCCCCCCN(CCCCCCCCNC(=N)NCC1CC1)C(=O)N(CCCCCCCCNC(=N)NCC1CC1)CCCCCCCCNC(=N)NCC1CC1)NCC1CC1 | inactive | inactive | inactive | inactive | inactive | inactive | Dose-dependent effect | inactive | inactive | hemolysis at 0.5 h, 64 ug/ml [19]: 0 to 7%; Activity [20]: inactive; Activity [22]: Dose-dependent effect; Activity [23]: Dose-dependent effect; MIC [24]: 8 µg/mL (≈ 8.39 µM); MIC [26]: 8 µg/mL (≈ 8.39 µM)
2 |  |  |  |  |  |  |  |  |  |  |  | CCCCCCCCCCCCOS(=O)(=O)[O-].[Na+] | Active |  |  |  | Active |  |  |  | Active | 
3 |  | 32 (≈ 43.4 µM) | 32 (≈ 43.4 µM) |  |  | 1 (≈ 1.36 µM) | 32 (≈ 43.4 µM) | 4 (≈ 5.43 µM) | 2 (≈ 2.71 µM) | 2 (≈ 2.71 µM) | 16 (≈ 21.7 µM) | N=C(N)NCCCCCCCCN(CCCCCCCCNC(=N)N)C(=O)N(CCCCCCCCNC(=N)N)CCCCCCCCNC(=N)N | inactive | inactive | inactive | inactive | inactive | inactive | Dose-dependent effect | inactive | inactive | hemolysis at 0.5 h, 64 ug/ml [19]: 0 to 7%; Activity [20]: inactive; Activity [22]: Dose-dependent effect; Activity [23]: Dose-dependent effect
4 | 8 (≈ 9.42 µM) | 0.5 (≈ 0.589 µM) | 4 (≈ 4.71 µM) | 2 (≈ 2.35 µM) | 32 (≈ 37.7 µM) | 0.25 (≈ 0.294 µM) | 32 (≈ 37.7 µM) | 2 (≈ 2.35 µM) | 0.5 (≈ 0.589 µM) | 1 (≈ 1.18 µM) | 16 (≈ 18.8 µM) | CCNC(=N)NCCCCCCCCN(CCCCCCCCNC(=N)NCC)C(=O)N(CCCCCCCCNC(=N)NCC)CCCCCCCCNC(=N)NCC |  |  |  |  |  |  |  |  |  | MIC [24]: 8 µg/mL (≈ 9.42 µM); MIC [26]: 32 µg/mL (≈ 37.7 µM)
5 |  | 2 (≈ 2.09 µM) | 8 (≈ 8.35 µM) |  |  | 4 (≈ 4.18 µM) | 64 (≈ 66.8 µM) | 16 (≈ 16.7 µM) | 8 (≈ 8.35 µM) | 4 (≈ 4.18 µM) | 64 (≈ 66.8 µM) | N=C(N)NCCCCCCCCCCN(CCCCCCCCCCNC(=N)NCC1CC1)C(=O)N(CCCCCCCCCCNC(=N)N)CCCCCCCCCCNC(=N)NCC1CC1 | inactive | inactive | inactive | inactive | inactive | inactive | Dose-dependent effect | inactive | inactive | hemolysis at 0.5 h, 64 ug/ml [19]: 41 to 54%; Activity [20]: inactive; Activity [22]: Dose-dependent effect; Activity [23]: Dose-dependent effect
6 |  | 64 (≈ 156 µM) | > 64 |  |  | > 64 | > 64 | 64 (≈ 156 µM) | > 64 | > 64 | > 64 | N=C(N)NCCCCCCCCNCCCCCCCCNC(=N)NCC1CC1 | inactive | inactive | inactive | inactive | inactive | inactive | Dose-dependent effect | inactive | inactive | hemolysis at 0.5 h, 64 ug/ml [19]: 0 to 7%; Activity [20]: inactive; Activity [22]: Dose-dependent effect; Activity [23]: Dose-dependent effect
7 |  |  |  |  |  |  |  |  |  |  |  | CO[C@H]1/C=C/O[C@@]2(C)Oc3c(C)c(O)c4c(O)c(c5c(nc6cc(C)ccn65)c4c3C2=O)NC(=O)/C(C)=C\C=C\[C@H](C)[C@H](O)[C@@H](C)[C@@H](O)[C@@H](C)[C@H](OC(C)=O)[C@@H]1C [RIFAXIMIN] |  |  |  |  |  |  |  |  |  | Papp at 5 h [27]: 0.06 ×10⁻⁶ cm/s
8 | ≥ 256 | ≥ 256 | ≥ 256 | ≥ 256 | ≥ 256 | ≥ 256 | ≥ 256 | ≥ 256 | ≥ 256 | ≥ 256 | ≥ 256 | CC(C)(C)OC(=O)/N=C(/NCCCCCCCCN(CCCCCCCCN/C(=N/C(=O)OC(C)(C)C)NC(=O)OC(C)(C)C)C(=O)N(CCCCCCCCN/C(=N/C(=O)OC(C)(C)C)N(CC1CC1)C(=O)OC(C)(C)C)CCCCCCCCN/C(=N/C(=O)OC(C)(C)C)N(CC1CC1)C(=O)OC(C)(C)C)NC(=O)OC(C)(C)C |  |  |  |  |  |  |  |  |  | MIC [24]: ≥ 256 µg/mL; MIC [26]: ≥ 256 µg/mL
9 | 8 (≈ 10.5 µM) | 0.5 (≈ 0.653 µM) | 4 (≈ 5.23 µM) | 4 (≈ 5.23 µM) | 32 (≈ 41.8 µM) | 0.5 (≈ 0.653 µM) | 8 (≈ 10.5 µM) | 1 (≈ 1.31 µM) | 0.5 (≈ 0.653 µM) | 1 (≈ 1.31 µM) | 8 (≈ 10.5 µM) | CNC(=N)NCCCCCCCCN(CCCCCCCCNC(=N)N)C(=O)N(CCCCCCCCNC(=N)N)CCCCCCCCNC(=N)NC |  |  |  |  |  |  |  |  |  | MIC [24]: 4 µg/mL (≈ 5.23 µM); MIC [26]: 16 µg/mL (≈ 20.9 µM)
10 |  |  |  |  |  |  |  |  |  |  |  | CC(C)NCC(O)COc1cccc2ccccc12 (stereo not drawn) [PROPRANOLOL] |  |  |  |  |  |  |  |  |  | efflux ratio at 2 h, 10 µM [28]: 0.4

Row | Compound | MIC [1] [µg/mL] | MIC [2] [µg/mL] | MIC [4] [µg/mL] | MIC [6] [µg/mL] | MIC [7] [µg/mL] | MIC [8] [µg/mL] | MIC ([9]; ATCC 27853, 18 h) [µg/mL] | MIC [13] [µg/mL] | MIC [16] [µg/mL] | MIC [18] [µg/mL] | MIC ([21]; ATCC 17978, 18 h) [µg/mL] | Activity [3] | Activity [5] | Activity [10] | Activity [11] | Activity [12] | Activity [14] | Activity [15] | Activity [17] | Activity [25] | further results
11 | COLISTIN |  |  | 0.5 |  |  |  |  |  |  |  |  |  |  |  |  |  |  |  |  |  | Activity [29]: Active; MIC [30]: 0.5 µg/mL; MIC [9]: 0.5 µg/mL; MIC [21]: 1 µg/mL
